In US12404232B2, “Compounds and compositions for intracellular delivery of therapeutic agents” (ModernaTX, Inc., priority 2015, dated 2025):

System: mice
Assay: Luc expression (bioluminescence, total flux) after intravenous administration to mice
Type: in vivo
Procedure, shortened: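 Lipid nanoparticle formulations carrying Luc mRNA were given intravenously to mice (n=6) at 0.5 mg/kg. Bioluminescence was imaged at 3, 6 and 24 h. Total flux was expressed as AUC relative to the standard MC3 formulation.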

With `CCCCCC=CCC=CCCCCCCCCC(CCCCCCCCC=CCC=CCCCCC)OC(=O)CCCN(C)C` (stereo not drawn) [MC3, heptatriaconta-6,9,28,31-tetraen-19-yl 4-(dimethylamino)butanoate, reference compound] the “AUC (p/s*h)” value (Luc total flux (Table 3D)) was 1.909E+011 p/s*h, the “6 h Lipid/MC3 G.M. Luc Expression” value (i.v. administration, 6 h, geometric mean) was 1 and the “AUC (h*p/s)” value (i.v. administration, total Luc flux (Table 3C)) was 8.24E+10 h*p/s.
